How the values were obtained:
[1] = Profiling of absorbed constituents and metabolites in mice plasma after oral administration of RA (UFLC-DAD-Q-TOF-MS/MS); conditions: oral RA extract 6 g/kg BW; cyclophosphamide-induced immunosuppressed Balb/c mice; plasma sampled 0.25-36 h; '-' = not detected
Protocol: The peaks that appeared at the same position in the total ion chromatograms of both the dosed mice bio-samples and the RA extract, but not in the chromatograms of the controlled mice bio-samples, were regarded as absorbed constituents [22].
Following randomization into study groups, mice (6/group/male) received intraperitoneal injection once daily of cyclophosphamide (i.p. 80 mg/kg BW) for 6 days. Additionally, the control group was injected intraperitoneally with sterile physiological saline. […] Plasma was harvested by centrifugation at 3000× g for 10 min and then kept frozen at −70 °C until analysis.
After being vortexed for 1 min, the sample was centrifuged at 13,000× g at 4 °C for 30 min. The supernate was transferred into a fresh tube and evaporated with nitrogen. Then, the residue was dissolved in a 60-μL mobile phase with vortex mixing for 3 min and centrifuged at 13,000× g for 30 min. Finally, 10 μL of the supernatant were injected into the UFLC/DAD/Q-TOF-MS/MS system.
The multiple constituents in RA and the absorbed compounds in mice plasma were identified by the ultra-fast liquid chromatography/diode-array detector/quadrupole time-of-flight tandem mass spectrometry (UFLC/DAD/Q-TOF-MS/MS) method.

[2] = Pharmacokinetics of five main constituents in immunosuppressive mice plasma after oral administration of RA (HPLC-MS/MS); type: in vivo, Balb/c mice; conditions: immunosuppressive Balb/c mice plasma; for AUC(0-t) / AUC(0-inf) / Cmax / half-life / Tmax: male, mouse, oral RA extract 6 g/kg BW; for AUC(0-t): 0-36 h, read-out: AUC(0–t); for AUC(0-inf): read-out: AUC(0–∞); for Cmax: read-out: Cmax; for half-life: read-out: t1/2z (converted); for Tmax: read-out: tmax
Protocol: The maximum plasma concentration (Cmax) and the time of maximum plasma concentration (tmax) were obtained from the observed data (Table 3). The plasma concentration-time profiles for calycosin-7-O-glucoside, ononin, calycosin, formononetin and astragaloside IV are shown in Figure 4.
To quantify calycosin-7-O-glucoside, ononin, calycosin, formononetin and astragaloside IV in mice, a 10-μL IS solution was added into 50 μL of plasma and mixed for 30 s. Then, 1 mL ethyl acetate was added to the tube and vortexed for 3 min. […] Ten microliters of the supernatant were injected into the HPLC-MS/MS system.
The quantification was performed by an LC-MS/MS system, which consisted of an Agilent 1200 HPLC series system and an Agilent 6410 triple quadrupole mass spectrometer (Agilent Technol., Santa Clara, CA, USA) equipped with an electrospray ionization source. Samples were separated by a rapid resolution HT C18 column (2.1 mm × 50 mm, 1.8 μm, Agilent Technol.) at 30 °C. The mobile phase consisted of 0.1 formic acid both in methanol (A) and water (B) using a gradient elution program of 25%–50% A (0–5 min) and 50%–90% (5–10 min). The flow rate was 0.2 mL/min, and the injection volume was 10 μL. Detection was performed in the positive ion mode using multiple reaction monitoring (MRM) of the m/z 447.1/285.0 for calycosin-7-O-glucoside, m/z 431.1/269.0 for ononin, m/z 285.0/137.0 for calycosin, m/z 269.0/213.0 for formononetin, m/z 807.4/627.3 for astragaloside IV and m/z 271.1/151.0 for naringenin.

| Molecule | Source: Dosed Plasma (time points at which the compound was detected) [1] [h] | also measured |
| --- | --- | --- |
| CC(C)C[C@H](N)C(=O)O (single isomer, unassigned) [Peak 9, Leucine] | 0.25 to 36 | – |
| Nc1ncnc2c1ncn2[C@@H]1O[C@H](CO)[C@@H](O)[C@H]1O (single isomer, unassigned) [Peak 10, Adenine nucleoside] | 0.25 to 36 | – |
| N[C@@H](Cc1ccccc1)C(=O)O (single isomer, unassigned) [Peak 11, Phenylalanine] | 0.25 to 36 | – |
| COc1cc(O[C@H]2O[C@H](CO)[C@H](O)[C@H](O)[C@H]2O[C@H]2OC[C@@](O)(CO)[C@H]2O)ccc1O (single isomer, unassigned) [Peak 13, Markhamioside F] | 0.25 to 8 | – |
| N[C@@H](Cc1ccc(O)cc1)C(=O)O (single isomer, unassigned) [Peak 16, Tyrosine] | 0.25 to 36 | – |
| COc1cc(O)c2c(=O)c(O[C@@H]3O[C@H](CO)[C@@H](O)[C@H](O)[C@H]3O)c(-c3ccc(O[C@@H]4O[C@H](CO)[C@@H](O)[C@H](O)[C@H]4O)cc3)oc2c1 (single isomer, unassigned) [Peak 18, Rhamnocitrin 3,4'-di-O-glucoside] | 0.25 to 6 | – |
| COc1cc(/C=C/CO)cc(OC)c1O[C@@H]1O[C@H](CO)[C@@H](O)[C@H](O)[C@H]1O (single isomer, unassigned) [Peak 24, Syringin] | 0.25 to 36 | – |
| COc1ccc(-c2coc3cc(O[C@@H]4O[C@H](CO)[C@@H](O)[C@H](O)[C@H]4O)cc(O)c3c2=O)cc1O (single isomer, unassigned) [Peak 26, Pratensein-7-O-glucoside] | 0.25 to 8 | – |
| COc1ccc(-c2coc3cc(O[C@@H]4O[C@H](CO)[C@@H](O)[C@H](O)[C@H]4O)ccc3c2=O)cc1O (single isomer, unassigned) [Peak 29, Calycosin-7-O-glucoside] | 0.25 to 24 | AUC(0-t) [2]: 108 ± 37.1 ng·h/mL; AUC(0-inf) [2]: 127 ± 40.3 ng·h/mL; Cmax [2]: 33.4 ng/mL; half-life [2]: 2.61 ± 0.67 h; Tmax [2]: 1.5 h |
| COc1ccc(-c2coc3cc(O[C@@H]4O[C@H](CO)[C@@H](O)[C@H](O)[C@H]4O)ccc3c2=O)cc1 (single isomer, unassigned) [Peak 33, Ononin] | 0.25 to 24 | double-peak phenomenon, time of second peak ([2]; after oral administration of RA): 4 h; AUC(0-t) [2]: 228 ± 59.7 ng·h/mL; AUC(0-inf) [2]: 239 ± 47.4 ng·h/mL; Cmax [2]: 51.4 ng/mL; half-life [2]: 1.96 ± 0.34 h; Tmax [2]: 1.5 h |
| COc1ccc2c(c1OC)OC1c3ccc(O[C@@H]4O[C@H](CO)[C@@H](O)[C@H](O)[C@H]4O)cc3OCC21 (single isomer, unassigned) [Peak 34, 9,10-dimethoxypterocarpan-3-O-glucoside] | 0.25 to 12 | – |
| CC(CCC(O)C(C)(C)O)C1C(O)CC2(C)C3CC(OC4OC(CO)C(O)C(O)C4O)C4C(C)(C)C(OC5OCC(O)C(O)C5O)CCC45CC35CCC12C (single isomer, unassigned) [Peak 43, Cyclocanthoside E] | 3 | – |
| CC(C)(O)[C@@H]1CC[C@](C)([C@H]2[C@@H](O)C[C@@]3(C)[C@@H]4C[C@H](O[C@@H]5O[C@H](CO)[C@@H](O)[C@H](O)[C@H]5O)[C@H]5C(C)(C)[C@@H](O[C@@H]6OC[C@@H](O)[C@H](O)[C@H]6O[C@@H]6O[C@H](CO)[C@@H](O)[C@H](O)[C@H]6O)CC[C@@]56C[C@@]46CC[C@]23C)O1 (single isomer, unassigned; peak 41) [Peak 41, Astragaloside VI] | 0.25 to 24 | – |
| C[C@@H]1O[C@@H](O[C@H]2[C@H](O[C@H]3[C@H](O[C@H]4CC[C@@]5(C)[C@@H](CC[C@]6(C)[C@@H]5CC=C5[C@@H]7CC(C)(C)C[C@@H](O)[C@]7(C)CC[C@]56C)[C@@]4(C)CO)O[C@H](C(=O)O)[C@@H](O)[C@@H]3O)OC[C@@H](O)[C@@H]2O)[C@H](O)[C@H](O)[C@H]1O (single isomer, unassigned; peak 48) [Peak 48, Astragaloside VIII] | 0.25 to 24 | – |
| C[N+](C)(C)CCO [Peak 4, Choline] | 0.25 to 36 | – |
| O=C(O)c1ccc(O)c(O)c1 [Peak 12, Protocatechuic acid] | 0.25 to 36 | – |
| COc1cc(C=O)cc(OC)c1O [Peak 23, Syringaldehyde] | 0.25 to 6 | – |
| COc1cc(/C=C/C(=O)O)ccc1O [Peak 25, Ferulic acid] | 0.25 to 36 | – |
| COc1ccc(/C=C/C(=O)O)cc1O [Peak 27, Isoferulic acid] | 0.25 to 36 | – |
| COc1ccc(-c2coc3cc(OC4OC(C(=O)O)C(O)C(O)C4O)ccc3c2=O)cc1 (stereo not drawn) [Peak M3, Glucuronidated formononetin] | 0.25 to 8 | – |
| Sulfated formononetin [Peak M6] | 0.25 to 8 | – |

More lines, main results first:

| Source: Dosed Plasma (time points at which the compound was detected) [1] [h] | Molecule | also measured |
| --- | --- | --- |
| 1 to 36 | NC(=O)C[C@H](N)C(=O)O (single isomer, unassigned) [Peak 2, Asparagine] | – |
| 0.25 to 36 | N[C@@H](Cc1c[nH]c2ccccc12)C(=O)O (single isomer, unassigned) [Peak 14, Tryptophan] | – |
| 0.25 to 36 | O=c1cc(-c2ccc(O)cc2)oc2cc(O[C@@H]3O[C@H](CO)[C@@H](O)[C@H](O)[C@H]3O)cc(O)c12 (single isomer, unassigned) [Peak 30, Cosmosiin] | – |
| 0.25 to 36 | CCCCC=CC=CC(=O)O (single isomer, unassigned) [Peak 35, 2,4-Nonadienic acid] | – |
| 0.25 to 8 | COc1ccc(-c2coc3cc(O[C@@H]4O[C@H](COC(C)=O)[C@@H](O)[C@H](O)[C@H]4O)ccc3c2=O)cc1 (single isomer, unassigned) [Peak 38, 6'-O-acetyl ononin] | – |
| 0.25 to 24 | C[C@@H]1O[C@@H](O[C@H]2[C@H](O[C@H]3[C@H](O[C@H]4CC[C@@]5(C)[C@@H](CC[C@]6(C)[C@@H]5CC=C5[C@@H]7CC(C)(C)C[C@@H](O)[C@]7(C)CC[C@]56C)[C@@]4(C)CO)O[C@H](C(=O)O)[C@@H](O)[C@@H]3O)O[C@H](CO)[C@H](O)[C@@H]2O)[C@H](O)[C@H](O)[C@H]1O (single isomer, unassigned) [Peak 47, Soyasaponin I] | – |
| 0.25 to 24 | CC(C)(O[C@@H]1O[C@H](CO)[C@@H](O)[C@H](O)[C@H]1O)[C@@H]1CC[C@](C)([C@H]2[C@@H](O)C[C@@]3(C)[C@@H]4C[C@H](O)[C@H]5C(C)(C)[C@@H](O[C@@H]6OC[C@@H](O)[C@H](O)[C@H]6O[C@@H]6O[C@H](CO)[C@@H](O)[C@H](O)[C@H]6O)CC[C@@]56C[C@@]46CC[C@]23C)O1 (single isomer, unassigned; peak 40) [Peak 40, Astragaloside V] | – |
| 0.25 to 36 | NCCCC(=O)O [Peak 5, γ-Aminobutyric acid] | – |
| 0.25 to 36 | COc1cc(C(=O)O)cc(OC)c1O [Peak 20, Syringic acid] | – |
| 0.25 to 36 | O=C(O)CCCCCCCC(=O)O [Peak 32, Azelaic acid] | – |
| 0.25 to 8 | Sulfated calycosin [Peak M1] | – |
| 0.25 to 8 | Sulfated isomucronulatol [Peak M5] | – |
